How the values were obtained:
false cleavers [1] = test: Test Example 4: herbicidal effect by soil treatment (Table 19, symbol Q); format: in vivo, false cleavers (Galium spurium); conditions: amount of applied herbicide 320 g/ha
Method in brief: (§1)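 In this soil treatment, the formulated compound reached the seeds only through the soil: seeds were buried about 1.5 cm deep in sterilized diluvial soil, then the diluted emulsion was sprayed over the surface. After three weeks at 25° C. to 30° C. in a greenhouse, effects were graded on criteria from an earlier test.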

windgrass [2] = test: Test Example 4: herbicidal effect by soil treatment (Table 19, symbol L); format: in vivo, windgrass (Apera spica-venti); conditions: amount of applied herbicide 320 g/ha
Method in brief: as §1

blackgrass [3] = test: Test Example 5: herbicidal effect by foliage application, plastic box (Table 20, symbol J); format: in vivo, blackgrass (Alopecurus myosuroides); conditions: foliage application, 320 g/ha, three weeks after application
Method in brief: (§2)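 Plants were sown into sterilized diluvial soil under about 1.5 cm cover and kept in a greenhouse at 25° C. to 30° C. Fourteen days on, foliage received an even spray of the diluted emulsion. Herbicidal or crop effect was judged three weeks afterwards.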

barnyard grass [4] = test: Test Example 5: herbicidal effect by foliage application, plastic box (Table 20, symbol H); format: in vivo, barnyard grass (Echinochloa crus-galli); conditions: foliage application, 320 g/ha, three weeks after application
Method in brief: as §2

barnyard grass [5] = test: Test Example 3: herbicidal effect by foliage application, Wagner pot (Table 18, symbol H); format: in vivo, barnyard grass (Echinochloa crus-galli); conditions: 320 g/ha
Method in brief: (§3)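 Plants were sown in alluvial soil held under 0.1–0.5 cm standing water and grown 14 days in a greenhouse at 25–30 °C. An emulsifiable formulation, water-diluted to the set dose, was then sprayed onto the foliage, and effects were scored three weeks later using previously defined criteria.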

Chinese sprangletop = test: Test Example 3: herbicidal effect by foliage application, Wagner pot (Table 18, symbol D); format: in vivo, chinese sprangletop (Leptochloa chinensis); conditions: 320 g/ha
Method in brief: as §3

velvetleaf [6] = test: Test Example 5: herbicidal effect by foliage application, plastic box (Table 20, symbol M); format: in vivo, velvetleaf (Abutilon theophrasti); conditions: foliage application, 320 g/ha, three weeks after application
Method in brief: as §2

redroot pigweed [7] = test: Test Example 4: herbicidal effect by soil treatment (Table 19, symbol N); format: in vivo, redroot pigweed (Amaranthus retroflexus); conditions: amount of applied herbicide 320 g/ha
Method in brief: as §1

southern crabgrass [8] = test: Test Example 4: herbicidal effect by soil treatment (Table 19, symbol F); format: in vivo, southern crabgrass (Digitaria ciliaris); conditions: amount of applied herbicide 320 g/ha
Method in brief: as §1

wild oat [9] = test: Test Example 5: herbicidal effect by foliage application, plastic box (Table 20, symbol I); format: in vivo, wild oat (Avena fatua); conditions: foliage application, 320 g/ha, three weeks after application
Method in brief: as §2

lambsquarters [10] = test: Test Example 5: herbicidal effect by foliage application, plastic box (Table 20, symbol O); format: in vivo, lambsquarters (Chenopodium album); conditions: foliage application, 320 g/ha, three weeks after application
Method in brief: as §2

southern crabgrass [11] = test: Test Example 5: herbicidal effect by foliage application, plastic box (Table 20, symbol F); format: in vivo, southern crabgrass (Digitaria ciliaris); conditions: foliage application, 320 g/ha, three weeks after application
Method in brief: as §2

blackgrass [12] = test: Test Example 4: herbicidal effect by soil treatment (Table 19, symbol J); format: in vivo, blackgrass (Alopecurus myosuroides); conditions: amount of applied herbicide 320 g/ha
Method in brief: as §1

Italian ryegrass [13] = test: Test Example 5: herbicidal effect by foliage application, plastic box (Table 20, symbol K); format: in vivo, Italian ryegrass (Lolium multiflorum); conditions: foliage application, 320 g/ha, three weeks after application
Method in brief: as §2

persian speedwell [14] = test: Test Example 5: herbicidal effect by foliage application, plastic box (Table 20, symbol R); format: in vivo, Persian speedwell (Veronica persica); conditions: foliage application, 320 g/ha, three weeks after application
Method in brief: as §2

rice flat sedge = test: Test Example 3: herbicidal effect by foliage application, Wagner pot (Table 18, symbol E); format: in vivo, rice flat sedge (Cyperus iria); conditions: 320 g/ha
Method in brief: as §3

chickweed [15] = test: Test Example 4: herbicidal effect by soil treatment (Table 19, symbol P); format: in vivo, common chickweed (Stellaria media); conditions: amount of applied herbicide 320 g/ha
Method in brief: as §1

false cleavers [16] = test: Test Example 5: herbicidal effect by foliage application, plastic box (Table 20, symbol Q); format: in vivo, false cleavers (Galium spurium); conditions: foliage application, 320 g/ha, three weeks after application
Method in brief: as §2

lambsquarters [17] = test: Test Example 4: herbicidal effect by soil treatment (Table 19, symbol O); format: in vivo, lambsquarters (Chenopodium album); conditions: amount of applied herbicide 320 g/ha
Method in brief: as §1

wild oat [18] = test: Test Example 4: herbicidal effect by soil treatment (Table 19, symbol I); format: in vivo, wild oat (Avena fatua); conditions: amount of applied herbicide 320 g/ha
Method in brief: as §1

Italian ryegrass [19] = test: Test Example 4: herbicidal effect by soil treatment (Table 19, symbol K); format: in vivo, Italian ryegrass (Lolium multiflorum); conditions: amount of applied herbicide 320 g/ha
Method in brief: as §1

barnyard grass [20] = test: Test Example 4: herbicidal effect by soil treatment (Table 19, symbol H); format: in vivo, barnyard grass (Echinochloa crus-galli); conditions: amount of applied herbicide 320 g/ha
Method in brief: as §1

windgrass [21] = test: Test Example 5: herbicidal effect by foliage application, plastic box (Table 20, symbol L); format: in vivo, windgrass (Apera spica-venti); conditions: foliage application, 320 g/ha, three weeks after application
Method in brief: as §2

redroot pigweed [22] = test: Test Example 5: herbicidal effect by foliage application, plastic box (Table 20, symbol N); format: in vivo, redroot pigweed (Amaranthus retroflexus); conditions: foliage application, 320 g/ha, three weeks after application
Method in brief: as §2

green foxtail = test: Test Example 5: herbicidal effect by foliage application, plastic box (Table 20, symbol G); format: in vivo, green foxtail (Setaria viridis); conditions: foliage application, 320 g/ha, three weeks after application
Method in brief: as §2

chickweed [23] = test: Test Example 5: herbicidal effect by foliage application, plastic box (Table 20, symbol P); format: in vivo, common chickweed (Stellaria media); conditions: foliage application, 320 g/ha, three weeks after application
Method in brief: as §2

persian speedwell [24] = test: Test Example 4: herbicidal effect by soil treatment (Table 19, symbol R); format: in vivo, Persian speedwell (Veronica persica); conditions: amount of applied herbicide 320 g/ha
Method in brief: as §1

velvetleaf [25] = test: Test Example 4: herbicidal effect by soil treatment (Table 19, symbol M); format: in vivo, velvetleaf (Abutilon theophrasti); conditions: amount of applied herbicide 320 g/ha
Method in brief: as §1

Compound: CSc1ccc(-c2sc3ccccc3c2-c2c(O)c(C)nn(C)c2=O)cc1 [1-036]
- herbicidal effect rating, Q: false cleavers (false cleavers [1]): 0 (Herbicidal rate of 5% or less (almost no effect))
- herbicidal effect rating, L: windgrass (windgrass [2]): 0 (Herbicidal rate of 5% or less (almost no effect))
- herbicidal effect grade, J: blackgrass (blackgrass [3]): 4 (Herbicidal rate of 70% or more and less than 90%)
- herbicidal effect grade, H: barnyard grass (barnyard grass [4]): 4 (Herbicidal rate of 70% or more and less than 90%)
- herbicidal effect on H (barnyard grass), rating 0-5 (barnyard grass [5]): 5 (Herbicidal rate of 90% or more (almost completely withered))
- herbicidal effect on D (Chinese sprangletop), rating 0-5 (Chinese sprangletop): 3 (Herbicidal rate of 40% or more and less than 70%)
- herbicidal effect grade, M: velvetleaf (velvetleaf [6]): 5 (Herbicidal rate of 90% or more (almost completely withered))
- herbicidal effect rating, N: redroot pigweed (redroot pigweed [7]): 5 (Herbicidal rate of 90% or more (almost completely withered))
- herbicidal effect rating, F: southern crabgrass (southern crabgrass [8]): 0 (Herbicidal rate of 5% or less (almost no effect))
- herbicidal effect grade, I: wild oat (wild oat [9]): 2 (Herbicidal rate of 20% or more and less than 40%)
- herbicidal effect grade, O: lambsquarters (lambsquarters [10]): 4 (Herbicidal rate of 70% or more and less than 90%)
- herbicidal effect grade, F: southern crabgrass (southern crabgrass [11]): 0 (Herbicidal rate of 5% or less (almost no effect))
- herbicidal effect rating, J: blackgrass (blackgrass [12]): 0 (Herbicidal rate of 5% or less (almost no effect))
- herbicidal effect grade, K: Italian ryegrass (Italian ryegrass [13]): 4 (Herbicidal rate of 70% or more and less than 90%)
- herbicidal effect grade, R: persian speedwell (persian speedwell [14]): 5 (Herbicidal rate of 90% or more (almost completely withered))
- herbicidal effect on E (rice flat sedge), rating 0-5 (rice flat sedge): 5 (Herbicidal rate of 90% or more (almost completely withered))
- herbicidal effect rating, P: chickweed (chickweed [15]): 5 (Herbicidal rate of 90% or more (almost completely withered))
- herbicidal effect grade, Q: false cleavers (false cleavers [16]): 4 (Herbicidal rate of 70% or more and less than 90%)
- herbicidal effect rating, O: lambsquarters (lambsquarters [17]): 5 (Herbicidal rate of 90% or more (almost completely withered))
- herbicidal effect rating, I: wild oat (wild oat [18]): 0 (Herbicidal rate of 5% or less (almost no effect))
- herbicidal effect rating, K: Italian ryegrass (Italian ryegrass [19]): 5 (Herbicidal rate of 90% or more (almost completely withered))
- herbicidal effect rating, H: barnyard grass (barnyard grass [20]): 4 (Herbicidal rate of 70% or more and less than 90%)
- herbicidal effect grade, L: windgrass (windgrass [21]): 3 (Herbicidal rate of 40% or more and less than 70%)
- herbicidal effect grade, N: redroot pigweed (redroot pigweed [22]): 5 (Herbicidal rate of 90% or more (almost completely withered))
- herbicidal effect grade, G: green foxtail (green foxtail): 4 (Herbicidal rate of 70% or more and less than 90%)
- herbicidal effect grade, P: chickweed (chickweed [23]): 5 (Herbicidal rate of 90% or more (almost completely withered))
- herbicidal effect rating, R: persian speedwell (persian speedwell [24]): 5 (Herbicidal rate of 90% or more (almost completely withered))
- herbicidal effect rating, M: velvetleaf (velvetleaf [25]): 2 (Herbicidal rate of 20% or more and less than 40%)

— patent US20230085307A1, “PYRIDAZINONE COMPOUND AND HERBICIDE” (NISSAN CHEMICAL CORPORATION, priority 2019, published 2023)
